Source: patent US20220324835A1 (Nurix Therapeutics, Inc., priority 2018, published 2022)
pIC50, pKd: −log10 of the molar value. Where two headings read alike, the source gives them in different places.

Columns and labels:
[1] = target: Cbl-b (residues 36-427) (Homo sapiens, UniProt Q13191); assay: Cbl-b binding assay (SPR, Biacore T200); conditions: 20° C., 1:1 binding model
In short: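 Affinities derived from global 1:1 steady-state or kinetic fits of double-referenced, solvent-corrected SPR data, 20 °C, NeutrAvidin-capture chip. Compound series (top 100 or 50 μM, 8–10 points) injected 50 s, 90–180 s dissociation. Asterisked values used 50 mM instead of 100 mM NaCl and 30 nM Src kinase.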

[2] = target: Cbl-b (Homo sapiens, UniProt Q13191); assay: Cbl-b activity assay (Cbl-b inhibition assay), TR-FRET of Cbl-b interaction with UbcH5B-Ub; format: biochemical; conditions: assay buffer with 100 mM NaCl, 60 nM Src kinase; read-out: Cbl-b activity IC50
In short: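 TR-FRET readout of Cbl-b binding to Bodipy-fluorescein N-terminally labeled Ub conjugated to UbcH5B C85K, measured with compound present. After compound incubation, 60 nM Src kinase with 1 mM ATP and 5 mM MgCl2 (final) was added for 1.5 h, then a further 1 h incubation; asterisked values used 50 mM NaCl buffer and 30 nM Src.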

[3] = system: anergic human T-cells; assay: Anergic T-cell activation assessed by IFNγ secretion (ionomycin-induced anergy); format: cell-based; conditions: anergic T-cells re-challenged with anti-CD3 and anti-CD28 for 24 hours, read-out: IFNγ Fold change from baseline
Excerpt: Peripheral blood mononuclear cells (PBMC) were obtained either: 1) by using Ficoll-Paque™ (GE Healthcare) for separation of peripheral blood hematopoietic cells from buffy coats of healthy human donors; or 2) directly from LeukoPak donations. Total human primary T-cells were isolated from the PBMCs utilizing negative selection with commercial kits following the manufacturer's protocol (Miltenyi Catalog #130-096-535 (i.e., cocktail of antibodies against surface markers CD14, CD15, CD16, CD19, CD34, CD36, CD56, CD123 and CD235a were incubated with the PBMCs before passing the samples by magnetic beads for removal of cells expressing those surface markers) or StemCells Catalog #17951) to yield >95% CD3+ cells assessed by flow cytometry. The cells were activated with immobilized anti-CD3 antibody (OKT3) and soluble anti-CD28 antibody (28.2) for two days at which time they are washed and allowed to rest for three days in the absence of stimulation. They were then treated with ionomycin (Sigma) for 18-24 hours to induce anergy. Following two washes to remove the ionomycin from the samples, Cbl-b inhibitor compounds were added to the cells at the indicated concentrations (e.g. 10, 1.11 and 0.37 μM) and incubated for 1 hour. The cells were then re-challenged with anti-CD3 antibody and anti-CD28 antibody for 24 hours at which point cell free supernatants were collected and assessed for cytokines (e.g., IFNγ) by ELISA (R&D Systems or Peprotech) or Luminex multiplex kits (Procarta Life Technologies) following manufacturer's protocols.
Cbl-b inhibitors were tested to determine their ability to induce or enhance secretion of cytokines from anergic T-cells (e.g. IFNγ), which is indicative of decreased T-cell tolerance.
Readouts were reported as fold change over baseline. Baseline for this study was the measurement obtained from anergic human T-cells stimulated with immobilized anti-CD3 and soluble anti-CD28, wherein the T-cells were not incubated with a Cbl-b inhibitor (Table 7). For IFNγ changes greater than 2.5-fold over baseline were considered a positive response (Table 7). Compounds were ranked into bins according to their readout as follows for IFNγ: A indicates ≤2.50, B indicates 2.51-4.00 and C indicates >4.01.

[4] = system: T-cell; assay: CD25 cell surface staining on T-cells co-stimulated with anti-CD3 and anti-CD28 antibody (Biological Example 2); format: cell-based, human; conditions: Homo sapiens, T-cell, primary human total T-cells
In short: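 No assay protocol given; T-cells stimulated with anti-CD3 alone or anti-CD3 plus anti-CD28, with or without Cbl-b inhibitor. Activation read as IL-2 secretion or CD25 surface staining, expressed as fold over baseline from uninhibited cells […].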

[5] = fold change over baseline, 0.3 μM Cbl-b inhibitor, read-out: CD25 staining Anti-CD3/Anti-CD28 stimulation
[6] = fold change over baseline, 1 μM Cbl-b inhibitor, read-out: CD25 staining Anti-CD3/Anti-CD28 stimulation
[7] = fold change over baseline, 4 μM Cbl-b inhibitor, read-out: CD25 staining Anti-CD3/Anti-CD28 stimulation
[8] = 0.3 μM compound, baseline = anti-CD3/anti-CD28 stimulated cells without inhibitor, read-out: CD25 staining, Anti-CD3/Anti-CD28 stimulation, fold change over baseline
[9] = 1 μM compound, baseline = anti-CD3/anti-CD28 stimulated cells without inhibitor, read-out: CD25 staining, Anti-CD3/Anti-CD28 stimulation, fold change over baseline
[10] = 4 μM compound, baseline = anti-CD3/anti-CD28 stimulated cells without inhibitor, read-out: CD25 staining, Anti-CD3/Anti-CD28 stimulation, fold change over baseline

Sequence of Cbl-b (residues 36-427) (Q13191 36-427): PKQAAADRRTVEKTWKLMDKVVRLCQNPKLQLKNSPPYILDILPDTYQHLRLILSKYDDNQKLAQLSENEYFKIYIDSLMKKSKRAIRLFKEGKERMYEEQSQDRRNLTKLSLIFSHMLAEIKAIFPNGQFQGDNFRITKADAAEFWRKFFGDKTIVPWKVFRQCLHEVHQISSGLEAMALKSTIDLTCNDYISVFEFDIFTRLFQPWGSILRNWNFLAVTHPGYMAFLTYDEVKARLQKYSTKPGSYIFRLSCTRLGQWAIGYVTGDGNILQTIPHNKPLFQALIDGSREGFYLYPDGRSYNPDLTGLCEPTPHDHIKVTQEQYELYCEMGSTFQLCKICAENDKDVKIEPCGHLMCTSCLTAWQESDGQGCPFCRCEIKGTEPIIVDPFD
Sequence of Cbl-b (Q13191 36-427): as above

C[C@H](Cc1nncn1C)c1cccc(NC(=O)c2cccc(C(F)(F)F)n2)c1 [Compound 183a, (R)-N-(3-(1-(4-methyl-4H-1,2,4-triazol-3-yl)propan-2-yl)phenyl)-6-(trifluoromethyl)picolinamide]
pKd [1]: 6.52 to 7.00
pIC50 [2]: > 7.00
fold induction at 0.37 µM [3]: ≤ 2.5
fold induction at 1.11 µM [3]: 2.51 to 4
fold induction at 10 µM [3]: ≤ 2.5
fold induction at 0.3 µM [4, 5]: > 1.76
fold induction at 1 µM [4, 6]: > 1.76
fold induction at 4 µM [4, 7]: > 1.76

Cc1cc(C(=O)Nc2cccc([C@H](C)Cc3nncn3C)c2)nc(C2CC2)n1 [Compound 195, (R)-2-cyclopropyl-6-methyl-N-(3-(1-(4-methyl-4H-1,2,4-triazol-3-yl)propan-2-yl)phenyl)pyrimidine-4-carboxamide]
pKd [1]: > 7.00
pIC50 [2]: > 7.00
fold induction at 0.37 µM [3]: ≤ 2.5
fold induction at 1.11 µM [3]: ≤ 2.5
fold induction at 10 µM [3]: ≤ 2.5
fold induction at 0.3 µM [4, 5]: 1.51 to 1.75
fold induction at 1 µM [4, 6]: > 1.76
fold induction at 4 µM [4, 7]: > 1.76

C[C@H](Cc1nncn1C)c1cccc(N2Cc3c(cccc3C(F)(F)F)C2=O)c1 [Compound 255a, (R)-2-(3-(1-(4-methyl-4H-1,2,4-triazol-3-yl)propan-2-yl)phenyl)-4-(trifluoromethyl)isoindolin-1-one]
pKd [1]: 6.52 to 7.00
pIC50 [2]: > 7.00
fold induction at 0.37 µM [3]: ≤ 2.5
fold induction at 1.11 µM [3]: 2.51 to 4
fold induction at 10 µM [3]: ≤ 2.5
fold induction at 0.3 µM [4, 5]: 1.31 to 1.5
fold induction at 1 µM [4, 6]: 1.51 to 1.75
fold induction at 4 µM [4, 7]: > 1.76

C[C@H](Cc1nncn1C)c1cccc(NC(=O)c2n[nH]c3c2CCC3)c1 [Compound 313, (R)-N-(3-(1-(4-Methyl-4H-1,2,4-triazol-3-yl)propan-2-yl)phenyl)-1,4,5,6-tetrahydrocyclopenta[c]pyrazole-3-carboxamide]
pKd [1]: 6.00 to 6.52
pIC50 [2]: 6.52 to 7.00
fold induction at 0.37 µM [3]: ≤ 2.5
fold induction at 1.11 µM [3]: ≤ 2.5
fold induction at 10 µM [3]: ≤ 2.5
fold induction at 0.3 µM [4, 5]: 1.01 to 1.3
fold induction at 1 µM [4, 6]: 1.01 to 1.3
fold induction at 4 µM [4, 7]: 1.01 to 1.3

C[C@@H](c1cc2c(c(C(F)(F)F)c1)CN(c1cccc(C3(Cc4nncn4C)COC3)c1)C2=O)N1CC[C@H](F)C1 [Compound 412, 6-((S)-1-((S)-3-fluoropyrrolidin-1-yl)ethyl)-2-(3-(3-((4-methyl-4H-1,2,4-triazol-3-yl)methyl)oxetan-3-yl)phenyl)-4-(trifluoromethyl)isoindolin-1-one]
pIC50 [2]: > 7.00
fold induction at 0.37 µM [3]: ≤ 2.5
fold induction at 1.11 µM [3]: > 4.01
fold induction at 10 µM [3]: > 4.01
fold induction at 0.3 µM [4, 8]: 1.31 to 1.5
fold induction at 1 µM [4, 9]: 1.51 to 1.75
fold induction at 4 µM [4, 10]: 1.51 to 1.75

C[C@H](c1cc2c(c(C(F)(F)F)c1)CN(c1cccc(C3(Cc4nncn4C)COC3)c1)C2=O)N1CC[C@H](F)C1 [Compound 413, 6-((R)-1-((S)-3-fluoropyrrolidin-1-yl)ethyl)-2-(3-(3-((4-methyl-4H-1,2,4-triazol-3-yl)methyl)oxetan-3-yl)phenyl)-4-(trifluoromethyl)isoindolin-1-one]
pIC50 [2]: > 7.00
fold induction at 0.37 µM [3]: 2.51 to 4
fold induction at 1.11 µM [3]: > 4.01
fold induction at 10 µM [3]: > 4.01
fold induction at 0.3 µM [4, 8]: 1.31 to 1.5
fold induction at 1 µM [4, 9]: 1.51 to 1.75
fold induction at 4 µM [4, 10]: 1.31 to 1.5

Cn1cnnc1CC1(c2cccc(N3Cc4c(cc(CN5CC(F)C5)cc4C(F)(F)F)C3=O)c2)COC1 [Compound 415, 6-((3-fluoroazetidin-1-yl)methyl)-2-(3-(3-((4-methyl-4H-1,2,4-triazol-3-yl)methyl)oxetan-3-yl)phenyl)-4-(trifluoromethyl)isoindolin-1-one]
pIC50 [2]: > 7.00
fold induction at 0.37 µM [3]: 2.51 to 4
fold induction at 1.11 µM [3]: 2.51 to 4
fold induction at 10 µM [3]: > 4.01
fold induction at 0.3 µM [4, 8]: 1.31 to 1.5
fold induction at 1 µM [4, 9]: 1.31 to 1.5
fold induction at 4 µM [4, 10]: 1.51 to 1.75

Cn1cnnc1CC1(c2cccc(N3Cc4c(cc(CN5CC[C@H](C#N)C5)cc4C(F)(F)F)C3=O)c2)COC1 [Compound 422, (S)-1-((2-(3-(3-((4-methyl-4H-1,2,4-triazol-3-yl)methyl)oxetan-3-yl)phenyl)-3-oxo-7-(trifluoromethyl)isoindolin-5-yl)methyl)pyrrolidine-3-carbonitrile]
pIC50 [2]: > 7.00
fold induction at 0.37 µM [3]: ≤ 2.5
fold induction at 1.11 µM [3]: 2.51 to 4
fold induction at 10 µM [3]: 2.51 to 4
fold induction at 0.3 µM [4, 8]: 1.31 to 1.5
fold induction at 1 µM [4, 9]: 1.31 to 1.5
fold induction at 4 µM [4, 10]: 1.31 to 1.5

Cn1cnnc1C(F)(F)[C@](C)(F)c1cccc(N2Cc3c(cc(N4CCNCC4)cc3C(F)(F)F)C2=O)c1 [Compound 442, (R)-6-(Piperazin-1-yl)-2-(3-(1,1,2-trifluoro-1-(4-methyl-4H-1,2,4-triazol-3-yl)propan-2-yl)phenyl)-4-(trifluoromethyl)isoindolin-1-one]
pIC50 [2]: > 7.00
fold induction at 0.37 µM [3]: ≤ 2.5
fold induction at 1.11 µM [3]: 2.51 to 4
fold induction at 10 µM [3]: 2.51 to 4
fold induction at 0.3 µM [4, 8]: 1.31 to 1.5
fold induction at 1 µM [4, 9]: 1.51 to 1.75
fold induction at 4 µM [4, 10]: 1.51 to 1.75

Cn1cnnc1C(F)(F)[C@](C)(F)c1cccc(N2Cc3c(cc(CN4CC[C@@H](C#N)C4)cc3C(F)(F)F)C2=O)c1 [Compound 455, (R)-1-((3-oxo-2-(3-((R)-1,1,2-trifluoro-1-(4-methyl-4H-1,2,4-triazol-3-yl)propan-2-yl)phenyl)-7-(trifluoromethyl)isoindolin-5-yl)methyl)pyrrolidine-3-carbonitrile]
pIC50 [2]: > 7.00
fold induction at 0.37 µM [3]: ≤ 2.5
fold induction at 1.11 µM [3]: 2.51 to 4
fold induction at 10 µM [3]: > 4.01
fold induction at 0.3 µM [4, 8]: 1.01 to 1.3
fold induction at 1 µM [4, 9]: 1.31 to 1.5
fold induction at 4 µM [4, 10]: 1.31 to 1.5

Cn1cnnc1CC1(c2cccc(NC(=O)c3cc(CN4CCC5(CC5)C4)cc(C4CC4)n3)c2)COC1 [Compound 519, 4-((5-azaspiro[2.4]heptan-5-yl)methyl)-6-cyclopropyl-N-(3-(3-((4-methyl-4H-1,2,4-triazol-3-yl)methyl)oxetan-3-yl)phenyl)picolinamide]
pIC50 [2]: > 7.00
fold induction at 0.37 µM [3]: > 4.01
fold induction at 1.11 µM [3]: > 4.01
fold induction at 10 µM [3]: > 4.01
fold induction at 0.3 µM [4, 8]: 1.31 to 1.5
fold induction at 1 µM [4, 9]: 1.31 to 1.5

Cn1cnnc1CC1(c2cccc(N3Cc4c(cc(CN5CCC6(CC6)C5)cc4C(F)(F)F)C3=O)c2)COC1 [Compound 520, 6-((5-azaspiro[2.4]heptan-5-yl)methyl)-2-(3-(3-((4-methyl-4H-1,2,4-triazol-3-yl)methyl)oxetan-3-yl)phenyl)-4-(trifluoromethyl)isoindolin-1-one]
pIC50 [2]: > 7.00
fold induction at 0.37 µM [3]: ≤ 2.5
fold induction at 1.11 µM [3]: 2.51 to 4
fold induction at 10 µM [3]: > 4.01
fold induction at 0.3 µM [4, 8]: 1.31 to 1.5
fold induction at 1 µM [4, 9]: 1.31 to 1.5
